# Where a name gives a salt, the structure may show the parent alone.
# How the values were obtained:
# Test in all cases: In vitro MMP inhibition, Ki determination (fluorogenic substrate II)
# Type in all cases: biochemical
# Human recombinant MMP-9 = biological target: T1, Human recombinant MMP-9 (Homo sapiens, UniProt P14780)
# T1 construct: made in house; host or cells: MMP-9-transfected HT1080 cells (spent media)
# Experimental: (§1) Several hydroxamates and salts thereof were analyzed in in vitro assays to determine their ability to inhibit the MMP cleavage of peptide substrates. Inhibition (Ki) and IC50 constants were calculated from the assayed hydroxamate-MMP interactions.
# (§2) Human recombinant MMP-1, MMP-2, MMP-9, MMP-13, and MMP-14 were used in this assay. All enzymes were prepared in Assignee's laboratories following usual laboratory procedures. Protocols for the preparation and use of these enzymes are available in the scientific literature. See, e.g., Enzyme Nomenclature (Academic Press, San Diego, Calif., 1992) (and the citations therein). See also, Frije et al., J. Biol. Chem., 26(24), 16766-73 (1994).
# The MMP-9 proenzyme was purified by gelatin Sepharose chromatography from spent media of MMP-9-transfected HT1080 cells provided by Dr. Howard Welgus of Washington University (St. Louis, Mo.).
# (§3) All MMPs were activated using 4-aminophenylmercuric acetate (“APMA”, Sigma Chemical, St. Louis, Mo.) or trypsin. MMP-9 also was activated using human recombinant MMP-3 (purified in Assignee's laboratory following standard cloning and purification techniques).
# (§4) Two fluorogenic, methoxycoumarin-containing polypeptide substrates were used in the MMP inhibition assays:
# (§5) MCA-ArgProLeuGlyLeuDpaAlaArgGluArgNH2 (II)
# (§6) Here, “Dpa” is 3-(2,4-dinitrophenyl)-L-2,3-diaminopropionyl group, and “MCA” is 7-methoxycoumarin-4-yl acetyl. Substrate (I) was purchased from Baychem (Redwood City, Calif.), and substrate II was prepared Assignee's laboratory. Substrate I was used in the IC50 determination assays, while substrate II was used in the Ki determination assays. In the absence of MMP inhibitory activity, either substrate is cleaved at the Gly-Leu peptide bond. This cleavage separates the highly fluorogenic peptide from the 2,4-dinitrophenyl quencher, thus resulting in increase of fluorescent intensity.
# (§7) The stock solutions of the assayed hydroxamates (or salts thereof) were prepared in 1% dimethyl sulfoxide (DMSO). These stock solutions were diluted in Buffer A (100 mM Tris-HCl, 100 mM NaCl, 10 mM CaCl2, 0.05% polyoxyethylene 23 lauryl ether, pH 7.5) to obtain solutions with different hydroxamate concentrations, i.e., assay solutions with different concentrations of the assayed MMP inhibitory compound. The experiment controls contained the same amount of Buffer A/DMSO as the assayed sample, but contained no hydroxamate (or salt thereof).
# (§8) The assays from which the Ki determinations were made were performed as follows. The assayed hydroxamate samples were incubated in separate wells of untreated white polystyrene plates (Nunc Nalgene International, Rochester, N.Y.), and analyzed on a Tecan SpectraFlour Plus plate reader. The excitation wavelength was 330 nm, and the emission wavelength—420 nm. All samples (assayed hydroxamates and controls) were incubated in separate plate wells at room temperature for 1 hr in the presence of 4 μM of MMP substrate (II). In the absence of MMP inhibitory activity, substrate II was cleaved at the Gly-Leu bond resulting in an increase of relative fluorescence. Inhibition was observed as a reduced rate of this increase in relative fluorescence. The various hydroxamates were analyzed using a single low enzyme concentration with a single substrate concentration fixed at or below the Km. This protocol is a modification of method by Knight et al., FEBS Lett., 296(3), 263-266 (1992). Apparent inhibitory constants were determined by non-linear regression of reaction velocity as a function of inhibitor and enzyme concentration using Morrison's equation, as described by Kuzmic, Anal. Biochem. 286, 45-50 (2000). Modifications were made in the non-linear regression method to allow a common control reaction rate and effective enzyme concentration to be shared between all dose-response relationships on a given assay plate. […]
# Human recombinant MMP-13 = biological target: T2, Human recombinant MMP-13 (Homo sapiens, UniProt P45452)
# T2 construct: made in house; host or cells: baculovirus / insect cells
# Experimental: as §1, §2
# The expressed proenzyme was first purified over a heparin agarose column, and then over a chelating zinc chloride column. The proenzyme was then activated by APMA for use in the assay. Further details on baculovirus expression systems may be found in, for example, Luckow et al., J. Virol., 67, 4566-79 (1993). See also, O'Reilly et al, Baculovirus Expression Vectors: A Laboratory Manual (W. H. Freeman and Co., New York, N.Y., 1992). See also, King et al., The Baculovirus Expression System: A Laboratory Guide (Chapman & Hall, London, England, 1992).
# as §3, §4, §5, §6, §7
# as §8, with “(2000).” for “(2000). Modifications were made in the non-linear regression method to allow a common control reaction rate and effective enzyme concentration to be shared between all dose-response relationships on a given assay plate.”
# Human recombinant MMP-14 = biological target: T3, Human recombinant MMP-14 (Homo sapiens, UniProt P50281)
# T3 construct: The catalytic domain enzyme was expressed in E. coli inclusion bodies, solubilized in urea; made in house
# Experimental: as §1, §2
# The MMP-14 full length cDNA was provided by Dr. Gregory Goldberg of Washington University (St. Louis, Mo.). The catalytic domain enzyme was expressed in E. coli inclusion bodies, solubilized in urea, purified on a preparative […] reverse phase HPLC column, and then refolded in the presence of zinc acetate and purified for use.
# as §3, §4, §5, §6, §7, §8
# [1] = substrate (II) 4 μM, 1 hr room temperature, apparent Ki, values in parenthesis
# T1 sequence (P14780 107-707 limits assumed): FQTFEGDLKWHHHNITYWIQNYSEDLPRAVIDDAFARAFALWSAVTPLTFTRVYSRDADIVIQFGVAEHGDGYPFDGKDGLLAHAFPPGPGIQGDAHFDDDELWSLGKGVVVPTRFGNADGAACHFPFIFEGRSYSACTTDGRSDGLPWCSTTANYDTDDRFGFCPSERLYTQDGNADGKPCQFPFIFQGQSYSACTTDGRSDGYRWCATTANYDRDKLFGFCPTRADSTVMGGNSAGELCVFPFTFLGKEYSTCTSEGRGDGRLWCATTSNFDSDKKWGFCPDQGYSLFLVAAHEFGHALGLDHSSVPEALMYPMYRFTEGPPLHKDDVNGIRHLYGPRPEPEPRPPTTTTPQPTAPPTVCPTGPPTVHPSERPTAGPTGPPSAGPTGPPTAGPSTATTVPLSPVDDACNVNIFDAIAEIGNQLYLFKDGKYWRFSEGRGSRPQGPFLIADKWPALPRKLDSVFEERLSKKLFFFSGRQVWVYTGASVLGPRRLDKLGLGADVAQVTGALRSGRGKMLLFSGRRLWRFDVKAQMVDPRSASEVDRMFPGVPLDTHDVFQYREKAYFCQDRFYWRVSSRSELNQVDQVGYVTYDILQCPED
Compound,Ki (Human recombinant MMP-9; value in parentheses),Ki (Human recombinant MMP-13; value in parentheses),Ki (Human recombinant MMP-14; value in parentheses),Ki (Human recombinant MMP-9; value in parenthesis),Ki (Human recombinant MMP-13; value in parenthesis),Ki (Human recombinant MMP-14; value in parenthesis),further results
O=C(NO)C1(S(=O)(=O)c2ccc(OCCCc3cc(-c4ccc(OC(F)(F)F)cc4)cs3)cc2)CCOCC1 [Example 608],1370 nM,9.34 nM,> 10000 nM,–,–,–,–
O=C(NO)C1(S(=O)(=O)c2ccc(OCCCc3cccc(-c4ccncc4)c3)cc2)CCOCC1 [Example 149],–,–,–,94.5 nM,1.18 nM,2530 nM,–
O=C(NO)C1(S(=O)(=O)c2ccc(OCCCc3cncc(-c4ccc(F)cc4)c3)cc2)CCOCC1 [Example 523],1250 nM,0.234 nM,> 10000 nM,–,–,–,–
O=C(NO)C1(S(=O)(=O)c2ccc(OCCCc3nc(-c4cccnc4)no3)cc2)CCOCC1 [Example 578],578 nM,1.72 nM,> 10000 nM,–,–,–,–
O=C(NO)C1(S(=O)(=O)c2ccc(OCCCc3cccc(-c4ccco4)c3)cc2)CCOCC1 [Example 97],–,–,–,473 nM,5.57 nM,> 10000 nM,–
O=C(NO)C1(S(=O)(=O)c2ccc(OCCCc3cccc(-c4ccccc4Cl)c3)cc2)CCOCC1 [Example 162],–,–,–,3150 nM,12 nM,> 10000 nM,–
Cc1ccc(-c2cccc(CCCOc3ccc(S(=O)(=O)C4(C(=O)NO)CCOCC4)cc3)c2)cc1C [Example 165],–,–,–,9750 nM,144 nM,> 10000 nM,–
O=C(CCCOc1ccc(S(=O)(=O)C2(C(=O)NO)CCOCC2)cc1)Nc1cccc(OC(F)(F)F)c1 [Example 181],–,–,–,40.5 nM,0.27 nM,4830 nM,–
O=C(Cc1csc2ccccc12)NCCOc1ccc(S(=O)(=O)C2(C(=O)NO)CCOCC2)cc1 [Example 596],308 nM,0.398 nM,1160 nM,–,–,–,–
Cc1ccc(-c2cccc(CCCOc3ccc(S(=O)(=O)C4(C(=O)NO)CCOCC4)cc3)c2)s1 [Example 639],688 nM,12.5 nM,> 10000 nM,–,–,–,–
O=C(NO)C1(S(=O)(=O)c2ccc(OCCCc3cccc(-n4ccnc4)c3)cc2)CCOCC1 [Example 574],83 nM,1.32 nM,5390 nM,–,–,–,–
Cc1cc(NC(=O)CCCOc2ccc(S(=O)(=O)C3(C(=O)NO)CCOCC3)cc2)ccc1OC(C)C [Example 290],–,–,–,> 10000 nM,0.547 nM,> 10000 nM,–
CC(C)c1cccc(NC(=O)CCCOc2ccc(S(=O)(=O)C3(C(=O)NO)CCOCC3)cc2)c1 [Example 182],–,–,–,85.4 nM,0.212 nM,5850 nM,–
CN(C(=O)CCCOc1ccc(S(=O)(=O)C2(C(=O)NO)CCOCC2)cc1)c1ccc(OC(F)(F)F)cc1 [Example 249],–,–,–,1490 nM,1.49 nM,> 10000 nM,–
"O=C(NO)C1(S(=O)(=O)c2ccc(OCCCc3nc(-c4ccc(OC(F)(F)F)cc4)no3)cc2)CCN(C2CC2)CC1 [Example 51, 1-cyclopropyl-N-hydroxy-4-{[4-(3-{3-[4-(trifluoromethoxy)phenyl]-1,2,4-oxadiazol-5-yl}propoxy)phenyl]sulfonyl}piperidine-4-carboxamide Hydrochloride]",–,–,–,–,–,–,Ki (Human recombinant MMP-9; [1]): 98.7 nM; Ki (Human recombinant MMP-13; [1]): 1.7 nM; Ki (Human recombinant MMP-14; [1]): 688 nM

# Source: patent US20040024024A1, “Aromatic sulfone hydroxamates and their use as protease inhibitors” (priority 2001, published 2004)
